From patent publication US6884593B1, “Method of identifying properties of substance with respect to human prostaglandin D2 receptors” (BML, Inc., priority 1999, dated 2005) come the findings set out here.

SMILES strings stand for the structures.

Assay [1] concerns the target T1, human CRTH2 (Homo sapiens, UniProt Q9Y5Y4).
T1 construct: A transformant into which full-length human CRTH2 cDNA is integrated is deposited as B19 cDNA; expressed in transfected cells
T1 sequence (Q9Y5Y4 1-395): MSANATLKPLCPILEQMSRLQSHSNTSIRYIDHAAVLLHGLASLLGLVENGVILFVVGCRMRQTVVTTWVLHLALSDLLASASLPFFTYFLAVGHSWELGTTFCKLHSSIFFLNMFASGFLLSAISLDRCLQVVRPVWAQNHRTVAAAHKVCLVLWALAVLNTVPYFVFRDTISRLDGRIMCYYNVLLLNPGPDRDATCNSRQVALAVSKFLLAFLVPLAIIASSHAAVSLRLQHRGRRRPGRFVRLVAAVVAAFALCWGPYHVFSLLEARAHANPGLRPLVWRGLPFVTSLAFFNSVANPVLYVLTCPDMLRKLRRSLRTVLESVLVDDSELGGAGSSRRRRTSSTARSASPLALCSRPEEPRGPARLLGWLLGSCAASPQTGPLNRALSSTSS
As to the kind of experiment: [^3H]PGD2 binding assay, cells expressing human CRTH2 (KB8). To be noted: for order of the degree of the binding affinity of prostanoids to human CRTH2: [^3H]PGD2 binding in the presence of unlabeled prostanoids, KB8, FIG. 3; for degree of binding affinity of human CRTH2 compared with that of the DP receptor: comparison human CRTH2 vs DP receptor. As for the experimental part:
Human CRTH2 gene expression plasmid pRc/B19 was prepared by means of a method described in detail in Nagata, K. et al., J. Immunol., 162: 1278-1286, 1999 and Japanese Sai-Kohyo (PCT) Patent Publication WO 97/46677. A transformant into which full-length human CRTH2 cDNA is integrated is deposited as B19 cDNA in National Institute of Bioscience and Human-Technology, Agency of Industrial Science and Technology (deposit number: FERM P-15616), and B19 cDNA can be used after approval is obtained from the depositor. When B19 cDNA is digested with restriction enzymes HindIII and XbaI, and is subcloned into the HindIII/XbaI site of plasmid pRc/CMV (product of Invitrogen), the same expression plasmid as the aforementioned pRc/B19 can be prepared. Through electroporation, the pRc/B19 and control plasmid pRc/CMV were genetically introduced into K562 cells, a human erythroblastic leukemia cell strain, and were subjected to selective culture for two to three weeks in the presence of 400 μg/ml of geneticin (product of SIGMA). Among the K562 cells into which the pRc/B19 had been genetically introduced, the survived cells were added to a 96-well microplate (0.3 cells per well), and then cultured for two to three weeks. The proliferated cell clones were subjected to fluorescence staining by use of an anti human CRTH2 antibody (Nagata, K. et al., J. Immunol., 162: 1278-1286, 1999), and clone KB8, in which human CRTH2 was highly expressed, was obtained. The K562 cells into which the control pRc/CMV had been genetically introduced were selected by use of geneticin, and then culture of the resultant cells was continued while polyclones were present (hereinafter the cells will be referred to as “K562/neo”).
(§1) Each of KB8 cells, KD36 cells, and K562/neo cells was resuspended in Hank's balanced salt solution (HBSS, product of Gibco BRL) so as to attain a concentration of 3×10^7 cells/ml. The resultant suspension (0.1 ml) was placed in a 0.5-ml microtube, and then cooled on ice. Subsequently, 1 nM of [^3H]PGD2 (product of Amersham) which had been diluted with HBSS was added to the suspension, to thereby allow reaction to proceed on ice for one hour. The reacted cells were placed carefully onto RPMI1640 medium (1 ml) containing 1 M sucrose and 10% fetal bovine serum, the medium having been placed in an 1.5-ml microtube and cooled by ice, and subjected to centrifugation (10,000 revolutions, three minutes) by use of a micro-centrifuge. […] The radiation activity of the cells bound to [^3H]PGD2 was measured by use of a liquid scintillation counter. The radiation activity of the cells when measured, in a manner similar to that described above, in the presence of unlabeled PGD2 (concentration: 200 times or more that of [^3H]PGD2) was used as an index of non-specific binding. […] In contrast, the specific binding of [^3H]PGD2 to KB8 or KD36 is observed.
(§2) [^3H]PGD2 binding assay described in Example 3 was carried out in the presence of various unlabeled prostanoids (products of Cayman), and the binding affinity of human CRTH2 to various prostanoids was evaluated.

Assay [2] has as its target T2, DP receptor (Homo sapiens, UniProt Q13258).
T2 construct: the coding region of the human DP receptor was amplified through PCR; expressed in transfected cells; cDNA from human small intestine poly(A)+ RNA
T2 sequence (Q13258 1-359): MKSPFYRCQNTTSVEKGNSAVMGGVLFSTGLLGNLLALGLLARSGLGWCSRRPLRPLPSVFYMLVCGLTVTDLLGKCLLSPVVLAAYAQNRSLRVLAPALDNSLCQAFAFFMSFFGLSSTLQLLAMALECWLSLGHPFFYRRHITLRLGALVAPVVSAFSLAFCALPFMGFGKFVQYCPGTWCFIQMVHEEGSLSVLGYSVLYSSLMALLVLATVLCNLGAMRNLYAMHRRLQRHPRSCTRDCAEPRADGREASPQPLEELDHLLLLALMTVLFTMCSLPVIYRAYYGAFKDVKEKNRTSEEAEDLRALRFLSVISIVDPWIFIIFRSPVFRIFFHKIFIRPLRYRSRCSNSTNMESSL
As to the kind of experiment: [^3H]PGD2 binding assay, cells expressing DP receptor (KD36). As to conditions: [^3H]PGD2 binding in the presence of unlabeled prostanoids, KD36, FIG. 3. As for the experimental part:
Human DP receptor cDNA was cloned through RT-PCR on the basis of the nucleotide sequence of human DP receptor cDNA described in Boie, Y. et al., J. Biol. Chem., 270: 18910-18916, 1995 and Japanese Kohyo (PCT) Patent Publication No. 10-507930. Specifically, the cDNA was prepared by use, as an template, of poly(A)+RNA (product of Clonetech) of the human small intestine in which the human DP receptor is highly expressed, and by use of oligo (dT) primer (product of Pharmacia) and MMLV reverse transcriptase (product of Pharmacia). Subsequently, the coding region of the human DP receptor was amplified through PCR (35 heat cycles, each cycle consisting of heating at 94° C. for 1 minute, at 68° C. for 1 minute, and at 72° C. for 1 minute) by use of a forward primer (5′-[…]: SEQ No. 1) containing a restriction enzyme HindIII site, and a reverse primer (5′-[…]: SEQ No. 2) containing an XbaI site. The resultant PCR product was digested with HindIII and XbaI, and subcloned into the HindIII/XbaI site of pRc/CMV. The thus-prepared human DP receptor expression plasmid was introduced into a K562 cell in a manner similar to that described in Example 1, and subjected to selection by use of geneticin and to cloning. The proliferated clones were subjected to the below-described [^3H]PGD2 binding assay, to thereby obtain clone KD36 in which the DP receptor is highly expressed.
as §1, §2

The target of assay [3] is T1, human CRTH2. As to the kind of experiment: Down modulation of human CRTH2 molecules from cell surface, KB8 cells. As to conditions: 37° C. for one hour, flow cytometer, FIG. 4. It counts as cell-based. As for the experimental part:
KB8 cells were suspended in RPMI1640 medium containing 10% fetal bovine serum so as to attain a concentration of 10^6 cells/ml, and cultured at 37° C. for one hour in the presence of a test sample. After completion of culturing, the cells were washed twice with HBSS through centrifugation, to thereby remove cell-free part of the sample. Subsequently, the resultant cells were resuspended in HBSS containing 0.5% bovine serum albumin and 0.05% NaN3, and the resultant suspension was subjected to fluorescence staining by use of anti CRTH2 monoclonal antibody HM16 and phycoerythrin-labeled anti rat immunoglobulin antibody. The average fluorescence intensity of the stained cells was measured by use of a flow cytometer (product of Becton Dickinson), and the fluorescence intensity of the cells treated with the sample was compared with that of non-treated cells (control).
(In general: A flow cytometer gives signals particle by particle.)

Assay [4] deals with T1, human CRTH2. As to the kind of experiment: Intracellular calcium assay, KB8 cells. As to conditions: treatment with PGD2 (some nM), Fura-2AM. It counts as cell-based. As for the experimental part:
(§3) Each of KB8 cells, KD36 cells, and K562/neo cells was suspended in RPMI1640 medium containing 10% fetal bovine serum so as to attain a concentration of 5×10^6 cells/ml, and cultured at 37° C. for one hour in the presence of 5 μM of Fura-2AM (product of Dojindo). After completion of culturing, the cells were washed three times with HBSS through centrifugation, to thereby remove free Fura-2AM. Subsequently, the resultant cells were resuspended in HBSS containing 0.1% bovine serum albumin so as to attain a concentration of 10^6 cells/ml. The resultant suspension was placed in a quartz cell (volume: 0.4 ml), and the cell was set in spectrophotometer LS50B (product of PerkinElmer). After a sample was added to the suspension, the time-course change of the ratio of fluorescence intensities (510 nm) at excitation wavelengths of 340 nm and 380 nm was obtained through calculation by use of FL-Winlab software (product of PerkinElmer).
In general terms: Calcium flux is commonly read through the fluorescence of an indicator in the cells.

Assay [5] addresses T2, DP receptor. Description: Intracellular calcium assay, KD36 cells. It counts as cell-based. To be noted: treatment with PGD2 (some nM), Fura-2AM. As for the experimental part:
as §3

In the next assay the test system is K562/neo cells. Description: Intracellular calcium assay, control K562/neo cells. It counts as cell-based, human. To be noted: treatment with PGD2 (0.25-250 nM), Fura-2AM. As for the experimental part: as §3

Take `CCCCCC(=O)CCC1C(=O)CC(O)C1C/C=C\CCCC(=O)O` (stereo not shown) [13,14-dihydro-15-keto PGD2]: on human CRTH2 [1], the “order of the degree of the binding affinity of prostanoids to human CRTH2” value (from here on “order of the degree … to human CRTH2”) is recorded as “PGD2≧13,14-dihydro-15-keto PGD2>>prostaglandin J2 (PGJ2)”; the “degree of binding affinity of human CRTH2 compared with that of the DP receptor” value is “a great difference exists between human CRTH2 and the DP receptor”. In addition, the “order of the degree of the binding affinity of prostanoids to the DP receptor” value (shortened to “order of the degree … to the DP receptor”) on DP receptor [2] was “PGE2>13,14-dihydro-15-keto PGD2>15-deoxydelta 12,14-PGJ2”. Besides, the “down modulation of CRTH2 (average fluorescence intensity vs non-treated control)” value at human CRTH2 [3] is “induce down modulation of CRTH2 significantly as compared with the control”.
With `CCCCC/C=C/C=C1/C(=O)C=CC1C/C=C\CCCC(=O)O` (stereo not shown) [15-deoxydelta 12,14-PGJ2], on human CRTH2 [1], the “order of the degree … to human CRTH2” value was “prostaglandin J2 (PGJ2)>15-deoxydelta 12,14-PGJ2≧prostaglandin E2 (PGE2)”. Besides, the “order of the degree … to the DP receptor” value on DP receptor [2] is on record as 13,14-dihydro-15-keto PGD2>15-deoxydelta 12,14-PGJ2≧TXB2.
For `CCCCC[C@H](O)/C=C/[C@H]1C=CC(=O)[C@@H]1C/C=C\CCCC(=O)O` [PGA2, prostaglandin A2], at human CRTH2 [1], the “order of the degree … to human CRTH2” value was “prostaglandin E2 (PGE2)=prostaglandin A2 (PGA2)>>thromboxane B2 (TXB2)”. Further, the “order of the degree … to the DP receptor” value on DP receptor [2] is “TXB2≧PGA2”.
As to `CCCCC[C@H](O)/C=C/[C@H]1C(=O)C[C@H](O)[C@@H]1C/C=C\CCCC(=O)O` [PGD2, Prostaglandin D2], the “order of the degree … to human CRTH2” value on human CRTH2 [1] was “PGD2≧13,14-dihydro-15-keto PGD2”. Moreover, the “degree of binding affinity of human CRTH2 compared with that of the DP receptor” value at human CRTH2 [1] was “equal to that of the binding affinity of the DP receptor to PGD2”. Besides, the “order of the degree … to the DP receptor” value at DP receptor [2] is “PGD2=PGJ2”. Moreover, the “concentration of calcium in the cells” value at human CRTH2 [4] was “increased considerably”; on DP receptor [5], “increased considerably”; in the assay on K562/neo cells it was “did not vary significantly”. In addition, on human CRTH2 [3], the “down modulation of CRTH2 (average fluorescence intensity vs non-treated control)” value was “induce down modulation of CRTH2 significantly as compared with the control”.
On to `CCCCC[C@H](O)/C=C/[C@H]1[C@H](O)CC(=O)[C@@H]1C/C=C\CCCC(=O)O` [PGE2, prostaglandin E2], for which the “order of the degree … to human CRTH2” value on human CRTH2 [1] is recorded as 15-deoxydelta 12,14-PGJ2≧prostaglandin E2 (PGE2)=prostaglandin A2 (PGA2). Also, the “order of the degree … to the DP receptor” value on DP receptor [2] was “PGJ2>>PGE2>13,14-dihydro-15-keto PGD2”. The “down modulation of CRTH2 (average fluorescence intensity vs non-treated control)” value on human CRTH2 [3] is “does not exert such an effect”.
For `CCCCC[C@H](O)/C=C/[C@H]1C(=O)C=C[C@@H]1C/C=C\CCCC(=O)O` [PGJ2, prostaglandin J2], the “order of the degree … to human CRTH2” value on human CRTH2 [1] is listed as 13,14-dihydro-15-keto PGD2>>prostaglandin J2 (PGJ2)>15-deoxydelta 12,14-PGJ2. On DP receptor [2], the “order of the degree … to the DP receptor” value is given as “PGD2=PGJ2>>PGE2”.
On to `CCCCC[C@H](O)/C=C/[C@H]1OC(O)C[C@H](O)[C@@H]1C/C=C\CCCC(=O)O` (stereo partly shown) [TXB2, thromboxane B2], for which, at human CRTH2 [1], the “order of the degree … to human CRTH2” value is listed as “prostaglandin A2 (PGA2)>>thromboxane B2 (TXB2)”. Further, the “order of the degree … to the DP receptor” value on DP receptor [2] is 15-deoxydelta 12,14-PGJ2≧TXB2≧PGA2.
